# Patent US8653092B2, “Tetrahydro-pyrido-pyrimidine derivatives” (Novartis AG, priority 2010, dated 2014)
# Assays:
# [1] = target: PI3K delta (Homo sapiens (Human), UniProt O00329); assay: Enzymatic PI3K delta isoform inhibition (lipid kinase, Kinase-Glo luminescence); format: biochemical; settings: enzymatic assay
# [2] = target: PI3K alpha (Homo sapiens (Human), UniProt P42336); assay: Enzymatic PI3K alpha isoform inhibition (lipid kinase, Kinase-Glo luminescence); format: biochemical; settings: enzymatic assay
# Sequence of PI3K alpha (P42336 other isoform, or with tags, fused parts or gaps): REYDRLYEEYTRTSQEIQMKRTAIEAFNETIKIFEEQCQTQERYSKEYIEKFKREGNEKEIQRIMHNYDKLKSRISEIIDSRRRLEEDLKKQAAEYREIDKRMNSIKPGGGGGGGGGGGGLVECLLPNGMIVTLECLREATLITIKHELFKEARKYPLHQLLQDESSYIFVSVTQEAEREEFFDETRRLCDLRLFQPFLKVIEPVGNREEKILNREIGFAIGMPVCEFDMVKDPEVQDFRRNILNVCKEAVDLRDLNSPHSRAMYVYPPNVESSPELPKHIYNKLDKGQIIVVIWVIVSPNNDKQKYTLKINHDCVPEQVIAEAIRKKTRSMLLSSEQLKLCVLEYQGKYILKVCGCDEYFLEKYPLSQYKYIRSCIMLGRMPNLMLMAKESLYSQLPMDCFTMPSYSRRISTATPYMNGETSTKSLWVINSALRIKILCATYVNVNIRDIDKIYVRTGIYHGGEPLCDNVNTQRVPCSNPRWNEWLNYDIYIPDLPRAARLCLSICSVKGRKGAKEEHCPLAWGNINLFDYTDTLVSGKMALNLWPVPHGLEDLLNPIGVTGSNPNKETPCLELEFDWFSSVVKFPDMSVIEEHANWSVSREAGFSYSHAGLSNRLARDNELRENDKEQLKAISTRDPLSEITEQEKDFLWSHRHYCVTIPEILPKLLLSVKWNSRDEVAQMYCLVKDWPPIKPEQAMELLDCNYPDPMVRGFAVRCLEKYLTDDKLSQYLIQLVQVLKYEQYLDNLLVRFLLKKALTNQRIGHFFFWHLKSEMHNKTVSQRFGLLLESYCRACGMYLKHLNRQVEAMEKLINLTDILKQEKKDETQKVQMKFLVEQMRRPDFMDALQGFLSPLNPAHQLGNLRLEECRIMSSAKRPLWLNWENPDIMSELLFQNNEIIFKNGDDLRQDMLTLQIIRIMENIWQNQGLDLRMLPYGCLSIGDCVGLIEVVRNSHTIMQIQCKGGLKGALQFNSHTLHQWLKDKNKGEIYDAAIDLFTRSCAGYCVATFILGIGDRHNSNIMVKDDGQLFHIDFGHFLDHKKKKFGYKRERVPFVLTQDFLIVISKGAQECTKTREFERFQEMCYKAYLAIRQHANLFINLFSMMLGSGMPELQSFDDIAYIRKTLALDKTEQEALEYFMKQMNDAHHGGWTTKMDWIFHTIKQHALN
# Sequence of PI3K delta (O00329 other isoform, or with tags, fused parts or gaps linker GGGGGG): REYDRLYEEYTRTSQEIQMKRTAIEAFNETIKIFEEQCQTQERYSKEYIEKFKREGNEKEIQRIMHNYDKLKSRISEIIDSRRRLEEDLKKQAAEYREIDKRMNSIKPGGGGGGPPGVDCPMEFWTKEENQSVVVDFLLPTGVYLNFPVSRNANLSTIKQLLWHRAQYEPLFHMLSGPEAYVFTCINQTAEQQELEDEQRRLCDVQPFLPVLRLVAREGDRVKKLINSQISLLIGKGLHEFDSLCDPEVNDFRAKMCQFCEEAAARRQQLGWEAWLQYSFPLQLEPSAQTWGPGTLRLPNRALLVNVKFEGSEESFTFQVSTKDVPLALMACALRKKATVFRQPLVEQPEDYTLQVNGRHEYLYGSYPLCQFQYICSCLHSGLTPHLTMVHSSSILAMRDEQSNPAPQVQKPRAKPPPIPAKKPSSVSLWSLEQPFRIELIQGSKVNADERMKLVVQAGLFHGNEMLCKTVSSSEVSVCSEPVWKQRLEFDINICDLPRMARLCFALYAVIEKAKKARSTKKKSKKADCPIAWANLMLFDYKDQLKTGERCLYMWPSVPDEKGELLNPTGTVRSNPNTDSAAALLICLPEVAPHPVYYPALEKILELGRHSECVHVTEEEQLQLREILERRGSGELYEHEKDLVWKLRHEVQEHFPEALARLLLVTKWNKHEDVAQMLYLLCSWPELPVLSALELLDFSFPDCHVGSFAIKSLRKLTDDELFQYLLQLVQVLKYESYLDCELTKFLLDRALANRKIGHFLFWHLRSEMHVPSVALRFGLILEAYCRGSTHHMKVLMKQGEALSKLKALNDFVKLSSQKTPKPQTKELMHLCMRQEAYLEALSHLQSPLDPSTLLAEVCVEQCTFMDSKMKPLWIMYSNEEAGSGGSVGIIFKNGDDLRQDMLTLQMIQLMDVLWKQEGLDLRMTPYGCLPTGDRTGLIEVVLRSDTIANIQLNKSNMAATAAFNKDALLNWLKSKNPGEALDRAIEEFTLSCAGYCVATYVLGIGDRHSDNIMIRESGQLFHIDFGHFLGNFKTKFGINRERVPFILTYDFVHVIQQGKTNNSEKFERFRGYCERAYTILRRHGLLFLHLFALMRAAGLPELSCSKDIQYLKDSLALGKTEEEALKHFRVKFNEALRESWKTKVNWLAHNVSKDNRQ
IC50 [1],IC50 [2],SMILES
4 nM,,"COc1ncc(N2CCc3ncnc(N[C@H]4CCN(C(=O)[C@H]5CC[C@@H](OC)CC5)C4)c3C2)cc1C(F)(F)F (single isomer, unassigned) [Example 73]"
4 nM,,"COc1ncc(N2CCc3ncnc(N[C@H]4CCN(C(=O)[C@H]5CC[C@H](OC)CC5)C4)c3C2)cc1C(F)(F)F (single isomer, unassigned) [Example 74]"
4 nM,118 nM,"COc1ncc(N2CCc3ncnc(N[C@H]4CCN(C(=O)[C@H]5CC[C@@H](O)CC5)C4)c3C2)cc1C(F)(F)F (single isomer, unassigned) [Example 75]"
7 nM,106 nM,"COc1ncc(N2CCc3ncnc(N[C@H]4CCN(C(=O)[C@H]5CC[C@H](O)CC5)C4)c3C2)cc1C(F)(F)F (single isomer, unassigned) [Example 76]"
9 nM,3390 nM,"COc1ncc(N2CCc3ncnc(O[C@H]4CCN(C(=O)C5CCOCC5)C4)c3C2)c(OC)n1 [Example 2, {(S)-3-[6-(2,4-Dimethoxy-pyrimidin-5-yl)-5,6,7,8-tetrahydro-pyrido[4,3-d]pyrimidin-4-yloxy]-pyrrolidin-1-yl}-(tetrahydro-pyran-4-yl)-methanone]"
15 nM,2390 nM,"COc1ncc(N2CCc3ncnc(O[C@H]4CCN(C(=O)C5CCOCC5)C4)c3C2)cc1C#N [Example 3, 2-Methoxy-5-{4-[(S)-1-(tetrahydro-pyran-4-carbonyl)-pyrrolidin-3-yloxy]-7,8-dihydro-5H-pyrido[4,3-d]pyrimidin-6-yl}-nicotinonitrile]"
33 nM,1760 nM,"CCC(=O)N1CC[C@H](Oc2ncnc3c2CN(c2cnc(OC)c(OC)c2)CC3)C1 [Example 4, 1-{(S)-3-[6-(5,6-Dimethoxy-pyridin-3-yl)-5,6,7,8-tetrahydro-pyrido[4,3-d]pyrimidin-4-yloxy]-pyrrolidin-1-yl}-propan-1-one]"
44 nM,987 nM,"N#Cc1cc(N2CCc3ncnc(O[C@H]4CCN(C(=O)C5CCOCC5)C4)c3C2)cnc1N [Example 6, 2-Amino-5-{4-[(S)-1-(tetrahydro-pyran-4-carbonyl)-pyrrolidin-3-yloxy]-7,8-dihydro-5H-pyrido[4,3-d]pyrimidin-6-yl}-nicotinonitrile]"
13 nM,1970 nM,COc1ncc(N2CCc3ncnc(O[C@H]4CCN(C(=O)C5CCOCC5)C4)c3C2)cc1F [Example 7]
27 nM,2490 nM,"COCC(=O)N1CC[C@H](Oc2ncnc3c2CN(c2cnc(OC)c(C#N)c2)CC3)C1 [Example 8, 2-Methoxy-5-{4-[(S)-1-(2-methoxy-acetyl)-pyrrolidin-3-yloxy]-7,8-dihydro-5H-pyrido[4,3-d]pyrimidin-6-yl}-nicotinonitrile]"
9 nM,2910 nM,"COc1ncc(N2CCc3ncnc(O[C@H]4CCN(C(=O)C5CCCC5)C4)c3C2)cc1C#N [Example 9, 5-[4-((S)-1-Cyclopentanecarbonyl-pyrrolidin-3-yloxy)-7,8-dihydro-5H-pyrido[4,3-d]pyrimidin-6-yl]-2-methoxy-nicotinonitrile]"
9 nM,668 nM,"COc1ncc(N2CCc3ncnc(O[C@H]4CCN(C(=O)c5oc(C)nc5C)C4)c3C2)cc1C [Example 10, (2,4-Dimethyl-oxazol-5-yl)-{(S)-3-[6-(6-methoxy-5-methyl-pyridin-3-yl)-5,6,7,8-tetrahydro-pyrido[4,3-d]pyrimidin-4-yloxy]-pyrrolidin-1-yl}-methanone]"
11 nM,1200 nM,"COc1ncc(N2CCc3ncnc(O[C@H]4CCN(C(=O)c5ccoc5)C4)c3C2)cc1C [Example 11, Furan-3-yl-{(S)-3-[6-(6-methoxy-5-methyl-pyridin-3-yl)-5,6,7,8-tetrahydro-pyrido[4,3-d]pyrimidin-4-yloxy]-pyrrolidin-1-yl}-methanone]"
12 nM,952 nM,"COc1ncc(N2CCc3ncnc(O[C@H]4CCN(C(=O)c5cnco5)C4)c3C2)cc1C [Example 12, {(S)-3-[6-(6-Methoxy-5-methyl-pyridin-3-yl)-5,6,7,8-tetrahydro-pyrido[4,3-d]pyrimidin-4-yloxy]-pyrrolidin-1-yl}-oxazol-5-yl-methanone]"
13 nM,1800 nM,"COc1ncc(N2CCc3ncnc(O[C@H]4CCN(C(=O)c5cncn5C)C4)c3C2)cc1C [Example 13, {(S)-3-[6-(6-Methoxy-5-methyl-pyridin-3-yl)-5,6,7,8-tetrahydro-pyrido[4,3-d]pyrimidin-4-yloxy]-pyrrolidin-1-yl}-(3-methyl-3H-imidazol-4-yl)-methanone]"
13 nM,1830 nM,"COc1ncc(N2CCc3ncnc(O[C@H]4CCN(C(=O)c5coc(C)n5)C4)c3C2)cc1C [Example 14, {(S)-3-[6-(6-Methoxy-5-methyl-pyridin-3-yl)-5,6,7,8-tetrahydro-pyrido[4,3-d]pyrimidin-4-yloxy]-pyrrolidin-1-yl}-(2-methyl-oxazol-4-yl)-methanone]"
14 nM,1630 nM,"COc1ncc(N2CCc3ncnc(O[C@H]4CCN(C(=O)C5CC(OC)C5)C4)c3C2)cc1C (stereo partly drawn) [Example 15, (3-Methoxy-cyclobutyl)-{(S)-3-[6-(6-methoxy-5-methyl-pyridin-3-yl)-5,6,7,8-tetrahydro-pyrido[4,3-d]pyrimidin-4-yloxy]-pyrrolidin-1-yl}-methanone]"
16 nM,1680 nM,COc1ncc(N2CCc3ncnc(O[C@H]4CCN(C(=O)c5cocn5)C4)c3C2)cc1C [Example 16]
17 nM,7680 nM,"COc1ncc(N2CCc3ncnc(O[C@H]4CCN(C(=O)C5CCN(C(C)=O)CC5)C4)c3C2)cc1C [Example 17, 1-(4-{(S)-3-[6-(6-Methoxy-5-methyl-pyridin-3-yl)-5,6,7,8-tetrahydro-pyrido[4,3-d]pyrimidin-4-yloxy]-pyrrolidine-1-carbonyl}-piperidin-1-yl)-ethanone]"
33 nM,871 nM,"COc1ncc(N2CCc3ncnc(O[C@H]4CCN(C(=O)c5ocnc5C)C4)c3C2)cc1C [Example 18, {(S)-3-[6-(6-Methoxy-5-methyl-pyridin-3-yl)-5,6,7,8-tetrahydro-pyrido[4,3-d]pyrimidin-4-yloxy]-pyrrolidin-1-yl}-(4-methyl-oxazol-5-yl)-methanone]"
33 nM,3060 nM,"COc1ncc(N2CCc3ncnc(O[C@H]4CCN(C(=O)c5ccc(=O)[nH]c5)C4)c3C2)cc1C [Example 19, 5-{(S)-3-[6-(6-Methoxy-5-methyl-pyridin-3-yl)-5,6,7,8-tetrahydro-pyrido[4,3-d]pyrimidin-4-yloxy]-pyrrolidine-1-carbonyl}-1H-pyridin-2-one]"
8 nM,320 nM,"COc1cc(N2CCc3ncnc(O[C@H]4CCN(C(=O)c5cocn5)C4)c3C2)cnc1OC [Example 21, {(S)-3-[6-(5,6-Dimethoxy-pyridin-3-yl)-5,6,7,8-tetrahydro-pyrido[4,3-d]pyrimidin-4-yloxy]-pyrrolidin-1-yl}-oxazol-4-yl-methanone]"
8 nM,580 nM,"COc1cc(N2CCc3ncnc(O[C@H]4CCN(C(=O)c5cnco5)C4)c3C2)cnc1OC [Example 22, {(S)-3-[6-(5,6-Dimethoxy-pyridin-3-yl)-5,6,7,8-tetrahydro-pyrido[4,3-d]pyrimidin-4-yloxy]-pyrrolidin-1-yl}-oxazol-5-yl-methanone]"
10 nM,129 nM,"COc1cc(N2CCc3ncnc(O[C@H]4CCN(C(=O)c5coc(C)n5)C4)c3C2)cnc1OC [Example 23, {(S)-3-[6-(5,6-Dimethoxy-pyridin-3-yl)-5,6,7,8-tetrahydro-pyrido[4,3-d]pyrimidin-4-yloxy]-pyrrolidin-1-yl}-(2-methyl-oxazol-4-yl)-methanone]"
9 nM,374 nM,"COc1cc(N2CCc3ncnc(O[C@H]4CCN(C(=O)C5CCOC(C)(C)C5)C4)c3C2)cnc1OC (stereo partly drawn) [Example 24, {(S)-3-[6-(5,6-Dimethoxy-pyridin-3-yl)-5,6,7,8-tetrahydro-pyrido[4,3-d]pyrimidin-4-yloxy]-pyrrolidin-1-yl}-(2,2-dimethyl-tetrahydro-pyran-4-yl)-methanone]"
26 nM,820 nM,"COc1cc(N2CCc3ncnc(O[C@H]4CCN(C(=O)c5oc(C)nc5C)C4)c3C2)cnc1OC [Example 25, {(S)-3-[6-(5,6-Dimethoxy-pyridin-3-yl)-5,6,7,8-tetrahydro-pyrido[4,3-d]pyrimidin-4-yloxy]-pyrrolidin-1-yl}-(2,4-dimethyl-oxazol-5-yl)-methanone]"
21 nM,368 nM,"COc1cc(N2CCc3ncnc(O[C@H]4CCN(C(=O)C5CCC(F)(F)CC5)C4)c3C2)cnc1OC [Example 26, (4,4-Difluoro-cyclohexyl)-{(S)-3-[6-(5,6-dimethoxy-pyridin-3-yl)-5,6,7,8-tetrahydro-pyrido[4,3-d]pyrimidin-4-yloxy]-pyrrolidin-1-yl}-methanone]"
21 nM,,"COc1ncc(N2CCc3ncnc(O[C@H]4CCN(C(=O)N5CCN(C)CC5)C4)c3C2)cc1C(F)(F)F [Example 85, {(S)-3-[6-(6-methoxy-5-trifluoromethyl-pyridin-3-yl)-5,6,7,8-tetrahydro-pyrido[4,3-d]pyrimidin-4-yloxy]-pyrrolidin-1-yl}-(4-methyl-piperazin-1-yl)-methanone]"
38 nM,,"COC(=O)N1CC[C@H](Oc2ncnc3c2CN(c2cnc(OC)c(C#N)c2)CC3)C1 [Example 90, (S)-3-[6-(5-cyano-6-methoxy-pyridin-3-yl)-5,6,7,8-tetrahydro-pyrido[4,3-d]pyrimidin-4-yloxy]-pyrrolidine-1-carboxylic acid methyl ester]"
,1710 nM,"COc1ncc(N2CCc3ncnc(O[C@H]4CCN(C(=O)c5cnco5)C4)c3C2)cc1C(F)(F)F [Example 94, {(S)-3-[6-(6-Methoxy-5-trifluoromethyl-pyridin-3-yl)-5,6,7,8-tetrahydro-pyrido[4,3-d]pyrimidin-4-yloxy]-pyrrolidin-1-yl}-oxazol-5-yl-methanone]"
